This note sets out measurements from patent US7994161B2, “Derivatives of 2-alkoxy-3,4,5-trihydroxy-alkyl amides, preparation and use thereof, and compositions containing the same” (Sanofi-Aventis, priority 2006, dated 2011).

The subject of the first data set is HCT116 cells. Briefly: Antiproliferative activity: inhibition of cellular proliferation of HCT116 cells (14C-thymidine incorporation). In kind it is cell-based. As to conditions: Homo sapiens, HCT-116, 96 hours. How it is done:
The antiproliferative activity of the products of the examples of Table 1 was determined by measuring the inhibition of the cellular proliferation of HCT116 cells.
The cells are inoculated into a cell culture medium at a concentration of 10 000 cells per well, in 0.17 mL of medium, and 20 μL of product to be tested, at various concentrations, and 10 μL of thymidine [methyl-14C] (100 μCi/ml—specific activity 47.90 mCi/mmol; NEN Technologies reference NEC568 batch 3550-001) are added, and then the cells are incubated at 37° C. and 5% CO2.
Medium used for the culture of HCT116 cells:DMEM medium 2 mM L-glutamine, 200 IU/ml penicillin, 200 μg/ml streptomycin and 10% (V/V) foetal calf serum (Life Technologies).
After 96 hours, the incorporation of ^14C-thymidine is counted in a Microbeta Wallac Trilux 1450 liquid scintillation counter. The results R are expressed in cpm (counts per minute) and converted to percentage growth inhibition GI % by first subtracting the mean of the number of cpm of the wells without B cells and by then dividing by the number of cpm of the wells of the untreated cells C comprising 20 μL of medium for dilution of the product containing 1% ethanol. (GI %=(R−B)×100/C %).
The IC50 values are calculated with the aid of the equation 205 of the XLFit software (IDBS company, UK) by non-linear regression analysis using the Marquardt algorithm (Donald W. MARQUARDT, J. Soc. industry. appl, vol 11, No. 2, June, 1963).
In turn, `CO[C@@H](C(=O)N[C@H]1COc2ccccc2NC1=O)[C@H](O)[C@@H](O)[C@H](O)/C=C/C(C)(C)C` [Example 1, N-((S)-8-oxo-6,7,8,9-tetrahydro-5-oxa-9-azabenzocyclohepten-7-yl)-(E)-(2R,3R,4S,5R)-3,4,5-trihydroxy-2-methoxy-8,8-dimethylnon-6-enamide] showed an IC50 of 60 nM.
The compound `CO[C@@H](C(=O)N[C@H]1COc2ccccc2N(C)C1=O)[C@H](O)[C@@H](O)[C@H](O)/C=C/C(C)(C)C` [Example 2, N-((S)-9-methyl-8-oxo-6,7,8,9-tetrahydro-5-oxa-9-azabenzocyclohepten-7-yl)-(E)-(2R,3R,4S,5R)-3,4,5-trihydroxy-2-methoxy-8,8-dimethylnon-6-enamide] registered a half-maximal inhibitory concentration (IC50) of 32 nM.
In turn, `CO[C@@H](C(=O)N[C@H]1CNc2ccccc2NC1=O)[C@H](O)[C@@H](O)[C@H](O)/C=C/C(C)(C)C` [Example 3, N-((S)-2-oxo-2,3,4,5-tetrahydro-1H-1,5-benzodiazepin-3-yl)-(E)-(2R,3R,4S,5R)-3,4,5-trihydroxy-2-methoxy-8,8-dimethylnon-6-enamide] displayed an IC50 of 88 nM.
Turning to `CO[C@@H](C(=O)N[C@H]1CNc2ccccc2N(C)C1=O)[C@H](O)[C@@H](O)[C@H](O)/C=C/C(C)(C)C` [Example 4, N-((S)-1-methyl-2-oxo-2,3,4,5-tetrahydro-1H-1,5-benzodiazepin-3-yl)-(E)-(2R,3R,4S,5R)-3,4,5-trihydroxy-2-methoxy-8,8-dimethylnon-6-enamide], it took 45 nM to reach half-maximal inhibition (IC50).
Still for that read-out and setting: the figure for `CO[C@@H](C(=O)NC1CN(C)c2ccccc2NC1=O)[C@H](O)[C@@H](O)[C@H](O)/C=C/C(C)(C)C` (stereo partly drawn) [Example 5, N-((S)-1-methyl-4-oxo-2,3,4,5-tetrahydro-1H-1,5-bezodiazepin-3-yl)-(E)-(2R,3R,4S,5R)-3,4,5-trihydroxy-2-methoxy-8,8-dimethylnon-6-enamide] is 28 nM.

Tested on in a further data set: not listed separately
In words: in vitro. Conditions: human, Caco-2.
`CO[C@@H](C(=O)N[C@H]1COc2ccccc2N(C)C1=O)[C@H](O)[C@@H](O)[C@H](O)/C=C/C(C)(C)C` [Example 2, N-((S)-9-methyl-8-oxo-6,7,8,9-tetrahydro-5-oxa-9-azabenzocyclohepten-7-yl)-(E)-(2R,3R,4S,5R)-3,4,5-trihydroxy-2-methoxy-8,8-dimethylnon-6-enamide] returned a Papp of 5.2 ×10⁻⁶ cm/s.
